In ChEMBL document CHEMBL1201862, “PubChem BioAssay data set” (2004):
Calls of active or inactive are those of the source.

Columns and labels:
[1] = molecular target: T1, Short transient receptor potential channel 4 (Mus musculus, UniProt Q9QUQ5); assay: mouse TRPC4 channel activators, dose response, cell-based, HEK293 TRPC4/mu-opioid, Fluo-4 calcium (AID 434937); type: functional
T1 sequence (Q9QUQ5 whole entry): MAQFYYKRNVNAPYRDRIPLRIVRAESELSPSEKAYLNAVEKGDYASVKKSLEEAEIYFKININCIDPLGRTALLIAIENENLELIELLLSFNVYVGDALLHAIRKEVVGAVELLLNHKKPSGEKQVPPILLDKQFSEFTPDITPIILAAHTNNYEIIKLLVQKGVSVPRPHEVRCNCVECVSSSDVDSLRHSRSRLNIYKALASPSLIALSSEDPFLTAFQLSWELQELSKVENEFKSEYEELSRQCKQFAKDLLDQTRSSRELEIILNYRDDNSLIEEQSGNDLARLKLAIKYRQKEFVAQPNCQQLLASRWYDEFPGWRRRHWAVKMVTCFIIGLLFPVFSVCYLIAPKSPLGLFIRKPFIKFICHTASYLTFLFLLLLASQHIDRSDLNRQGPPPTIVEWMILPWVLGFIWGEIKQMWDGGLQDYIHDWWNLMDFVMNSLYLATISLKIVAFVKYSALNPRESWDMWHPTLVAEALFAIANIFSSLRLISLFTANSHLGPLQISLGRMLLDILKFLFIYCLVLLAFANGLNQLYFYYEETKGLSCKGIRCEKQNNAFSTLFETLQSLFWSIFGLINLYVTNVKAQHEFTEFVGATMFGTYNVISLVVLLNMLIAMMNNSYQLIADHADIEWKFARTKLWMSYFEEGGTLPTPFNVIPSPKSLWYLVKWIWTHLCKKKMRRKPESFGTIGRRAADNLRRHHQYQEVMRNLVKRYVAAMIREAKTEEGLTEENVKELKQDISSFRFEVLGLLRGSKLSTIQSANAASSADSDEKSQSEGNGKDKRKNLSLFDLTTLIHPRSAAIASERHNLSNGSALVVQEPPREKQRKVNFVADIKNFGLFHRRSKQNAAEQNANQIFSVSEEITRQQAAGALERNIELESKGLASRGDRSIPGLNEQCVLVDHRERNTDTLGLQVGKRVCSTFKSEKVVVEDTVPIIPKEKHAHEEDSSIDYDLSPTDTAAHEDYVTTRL

[2] = microbe, parasite or virus in culture; type: functional; details: Mycobacterium tuberculosis
[3] = molecular target: T2, Ubiquitin-conjugating enzyme E2 N (Homo sapiens, UniProt P61088); type: functional;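 also: Dose-response confirmation in a TR-FRET assay detecting UBC13-driven polyubiquitin chain formation, inhibition measured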
T2 sequence (P61088 whole entry): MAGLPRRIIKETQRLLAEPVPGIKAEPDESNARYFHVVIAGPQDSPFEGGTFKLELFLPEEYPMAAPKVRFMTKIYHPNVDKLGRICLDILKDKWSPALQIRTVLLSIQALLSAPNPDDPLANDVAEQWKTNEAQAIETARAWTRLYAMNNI

[4] = tested on: INS1; assay: beta cell apoptosis inhibitors, cytokine rescue, dose response, luminescence, retest (AID 449756); type: functional, cell-based; details: Rattus norvegicus;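 also: cell death triggered by IL-1 beta plus TNF-alpha plus IFN-gamma mixture; protective hits raise ATP signal compared with cytokine alone wells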
[5] = molecular target: Induced myeloid leukemia cell differentiation protein Mcl-1 (Homo sapiens, UniProt Q07820); type: functional
[6] = molecular target: Nonstructural protein 1 (Influenza A virus, UniProt Q194T2); type: functional, Influenza A virus (A/California/07/2009(H1N1))
[7] = molecular target: T3, Microphthalmia-associated transcription factor (Homo sapiens, UniProt O75030); assay: TRPM1 promoter luciferase signal decrease, dose response, MITF inhibitor project, cell-based, SK-MEL-5, cherry-picked, set 3 (AID 493073); type: functional
T3 sequence (O75030 whole entry): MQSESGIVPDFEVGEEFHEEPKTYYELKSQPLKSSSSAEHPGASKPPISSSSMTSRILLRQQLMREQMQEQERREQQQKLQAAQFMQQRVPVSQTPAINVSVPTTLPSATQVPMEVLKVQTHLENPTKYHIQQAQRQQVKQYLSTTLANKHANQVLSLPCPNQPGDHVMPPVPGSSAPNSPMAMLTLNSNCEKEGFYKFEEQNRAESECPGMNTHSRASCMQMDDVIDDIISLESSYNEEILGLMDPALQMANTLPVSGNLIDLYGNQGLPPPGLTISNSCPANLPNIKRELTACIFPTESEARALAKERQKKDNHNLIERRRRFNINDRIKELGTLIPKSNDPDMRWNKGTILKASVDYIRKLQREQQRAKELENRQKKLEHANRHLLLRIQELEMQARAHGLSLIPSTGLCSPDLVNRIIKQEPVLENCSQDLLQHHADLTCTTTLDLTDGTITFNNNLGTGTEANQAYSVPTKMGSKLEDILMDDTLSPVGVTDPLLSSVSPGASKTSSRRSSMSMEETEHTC

[8] = molecular target: T4, DNA repair protein RAD52 homolog (Homo sapiens, UniProt P43351); type: functional, biochemical
T4 sequence (P43351 whole entry): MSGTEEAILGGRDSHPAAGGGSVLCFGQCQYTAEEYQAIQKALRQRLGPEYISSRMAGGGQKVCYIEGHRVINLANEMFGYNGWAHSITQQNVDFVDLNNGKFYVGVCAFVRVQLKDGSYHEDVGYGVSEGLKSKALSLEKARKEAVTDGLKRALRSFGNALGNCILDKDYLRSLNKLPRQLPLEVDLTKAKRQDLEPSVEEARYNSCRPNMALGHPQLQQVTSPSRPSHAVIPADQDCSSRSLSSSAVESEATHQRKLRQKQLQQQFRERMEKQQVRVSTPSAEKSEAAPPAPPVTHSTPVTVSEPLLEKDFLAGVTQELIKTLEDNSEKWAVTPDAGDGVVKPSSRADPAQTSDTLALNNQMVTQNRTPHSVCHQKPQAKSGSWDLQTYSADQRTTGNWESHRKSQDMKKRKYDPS

[9] = molecular target: Cytochrome P450 2D6 (Homo sapiens, UniProt P10635);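 also: CYP2D6 member of a cytochrome P450 panel assay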
[10] = inhibitors of firefly luciferase expression or activity, dose response, H4 neuroglioma cells, luminescence (AID 1990); type: functional, cell-based
[11] = Luminescence Cell-Based Dose Response HTS to Identify Inhibitors of 5'UTR Stem-Loop Driven Prion Protein mRNA Translation in H4 Neuroglioblastoma Cells. [Related pubchem assays: 1827 (Project Summary), 1813 (Primary HTS)]; type: functional
[12] = inhibitors of SNCA 5'UTR-driven reporter translation, confirmation, H4 neuroglioma cells, luminescence (AID 1988); type: functional, cell-based
[13] = inhibitors of intracellular T. cruzi replication, confirmation, NIH3T3 host cells, beta-gal luminescence (AID 2044); type: functional, cell-based;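 also: intracellular parasites grown in NIH/3T3 mouse fibroblasts as host cells; luminescent beta-galactosidase reporter signal from transgenic T. cruzi replicating inside host cells; inhibitors lower the luminescence signal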
[14] = cytotoxicity toward NIH3T3 fibroblasts, dose response, counter-screen, cell-based, ATP luminescence, mouse fibroblasts (AID 2010); type: functional;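 also: cells exposed to compound for about 90 hours before reading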
[15] = intracellular Trypanosoma cruzi inhibitors in host cells – cell-based, plate reader, cherry-pick samples, set 3, dose response (AID 651818); type: functional;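 also: compounds incubated with infected cells for about four days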
[16] = molecular target: Luciferin 4-monooxygenase (Photinus pyralis, UniProt P08659); assay: firefly luciferase enzyme inhibitors, dose response, biochemical, luminescence (AID 1891)
[17] = Luminescence Cell-Based Dose Confirmation HTS to Identify Inhibitors of Platelet Dense Granule Release. [Related pubchem assays: 1663 (Primary HTS), 1678 (Summary of Project)]; type: functional

Sequence of Nonstructural protein 1 (Q194T2 whole entry): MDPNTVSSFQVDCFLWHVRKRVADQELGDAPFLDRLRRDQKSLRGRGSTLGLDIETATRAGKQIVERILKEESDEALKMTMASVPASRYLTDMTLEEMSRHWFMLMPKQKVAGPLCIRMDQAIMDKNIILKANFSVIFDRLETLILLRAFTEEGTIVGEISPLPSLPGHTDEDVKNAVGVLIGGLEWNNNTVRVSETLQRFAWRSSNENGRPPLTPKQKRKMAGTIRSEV
Sequence of Induced myeloid leukemia cell differentiation protein Mcl-1 (Q07820 whole entry): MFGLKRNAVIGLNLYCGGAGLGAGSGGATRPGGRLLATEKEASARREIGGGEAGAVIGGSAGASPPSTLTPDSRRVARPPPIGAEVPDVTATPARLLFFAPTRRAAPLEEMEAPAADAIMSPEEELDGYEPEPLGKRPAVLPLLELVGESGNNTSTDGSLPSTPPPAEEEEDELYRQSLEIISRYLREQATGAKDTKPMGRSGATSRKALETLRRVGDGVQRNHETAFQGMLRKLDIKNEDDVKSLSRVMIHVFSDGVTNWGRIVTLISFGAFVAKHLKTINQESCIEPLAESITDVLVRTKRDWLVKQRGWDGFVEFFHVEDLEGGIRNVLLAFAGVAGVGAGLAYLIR
Sequence of Cytochrome P450 2D6 (P10635 whole entry): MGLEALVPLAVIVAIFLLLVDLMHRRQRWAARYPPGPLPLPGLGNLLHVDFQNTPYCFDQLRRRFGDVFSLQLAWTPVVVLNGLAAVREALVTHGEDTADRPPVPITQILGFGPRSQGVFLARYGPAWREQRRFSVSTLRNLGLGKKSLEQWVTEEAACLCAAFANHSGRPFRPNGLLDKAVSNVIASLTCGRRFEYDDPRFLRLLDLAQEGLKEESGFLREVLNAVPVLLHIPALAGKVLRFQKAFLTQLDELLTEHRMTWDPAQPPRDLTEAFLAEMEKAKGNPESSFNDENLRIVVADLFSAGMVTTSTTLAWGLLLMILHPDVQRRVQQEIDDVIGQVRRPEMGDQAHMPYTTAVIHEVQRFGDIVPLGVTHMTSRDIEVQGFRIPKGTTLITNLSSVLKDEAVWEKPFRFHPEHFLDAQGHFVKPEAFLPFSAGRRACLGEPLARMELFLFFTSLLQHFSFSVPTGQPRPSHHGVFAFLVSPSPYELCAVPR
Sequence of Luciferin 4-monooxygenase (P08659 whole entry): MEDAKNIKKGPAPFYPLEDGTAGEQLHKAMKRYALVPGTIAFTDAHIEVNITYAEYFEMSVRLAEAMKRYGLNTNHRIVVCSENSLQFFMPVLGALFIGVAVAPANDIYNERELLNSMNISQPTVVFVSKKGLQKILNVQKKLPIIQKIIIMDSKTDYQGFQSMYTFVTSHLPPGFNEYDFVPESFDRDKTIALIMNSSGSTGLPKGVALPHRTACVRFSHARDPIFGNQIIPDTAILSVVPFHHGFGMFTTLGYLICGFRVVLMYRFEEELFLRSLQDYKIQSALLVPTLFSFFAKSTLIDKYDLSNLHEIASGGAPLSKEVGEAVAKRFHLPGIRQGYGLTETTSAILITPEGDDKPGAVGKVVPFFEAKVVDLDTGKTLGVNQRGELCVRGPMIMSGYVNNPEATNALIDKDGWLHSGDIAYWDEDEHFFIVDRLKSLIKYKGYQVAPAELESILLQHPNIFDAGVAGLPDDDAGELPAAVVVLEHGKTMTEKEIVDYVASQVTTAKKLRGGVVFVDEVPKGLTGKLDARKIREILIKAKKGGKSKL

CCOc1ccccc1C1CC(c2ccc(Cl)cc2)Nc2nc(N)nn21 (stereo not given)
EC50 [1]: 11.9 µM (active)

CC(CN1CCCC(C(N)=O)C1)c1ccccc1 (stereo not given)
EC50 [1]: 1.19 µM (active)

COC(=O)C1=C(c2ccc(OCc3ccccc3)cc2)C[C@@H]2CC[C@H]1N2C(=O)NC1CCN(Cc2ccccc2)CC1
CC50 [2]: 17.6 µM (active) | IC50 [3]: > 20 µM (inactive) | AC50 [4]: 3.96 µM (active)

Cc1ccc(NS(=O)(=O)c2cc([N+](=O)[O-])ccc2NNC(=S)Nc2cccc(Cl)c2)c(C)c1
IC50 [5]: 5.74 µM (not active) | IC50 [6]: 17 µM (active)

CC(N)Cc1c[nH]c2cc3c(cc12)OCCO3 (stereo not given)
EC50 [1]: 1.33 µM (active)

CC1CN(C(=O)CCC(=O)NCCCN2CCC(Cc3ccccc3)CC2)c2cc(Cl)ccc2O1 (stereo not given)
IC50 [3]: > 20 µM (inactive) | AC50 [7]: 16.2 µM (active)

NCCCC[C@@H]1NC(=O)c2cc([N+](=O)[O-])cc(F)c2NCCCC[C@@H](C(N)=O)NC(=O)[C@H](CCC(N)=O)NC1=O
IC50 [3]: > 20 µM (inactive) | AC50 [8]: 8.88 µM (active)

CCN1C(NCc2ccc(OC)cc2)=N[C@@H](CCc2ccccc2)[C@H](C(=O)NCc2ccc(OC)cc2)[C@H]1C
IC50 [3]: > 20 µM (inactive)

COc1ccc(CNn2c(C)nc3ccccc3c2=O)cc1
IC50 [3]: > 20 µM (inactive) | AC50 [9]: 25.1 µM (inconclusive)

O=C(CN1C(=O)C2CCCCC2C1=O)Nc1nc(-c2ccccn2)cs1 (stereo not given)
EC50 [10]: > 120 µM (not active) | EC50 [11]: 14.3 µM (active) | EC50 [12]: > 120 µM (not active) | IC50 [6]: 16 µM (active)

CCN(CCCNS(=O)(=O)c1cc(-c2cc(C)no2)ccc1C)Cc1ccccc1
EC50 [1]: 0.299 µM (active)

Cc1cc2ccccc2n1CCNC(=O)C(C)Oc1ccccc1 (stereo not given)
EC50 [13]: 0.705 µM (active) | EC50 [14]: 13.8 µM (active) | IC50 [6]: 64.6 µM (active)

C1CCCCCC(NCCN2CCNCC2)CCCCC1
AC50 [8]: 23.1 µM (active)

CC(CC(=O)c1ccc(F)cc1)N1CCN(c2ccccc2)CC1 (stereo not given)
AC50 [8]: 34.3 µM (active)

O=[N+]([O-])c1ccc(N=Nc2ccc(O)c3ccccc23)cc1
IC50 [6]: 25.9 µM (active)

C#Cc1cccc(C(=O)NC2CCCN(C3Cc4ccccc4C3)C2)c1 (stereo not given)
EC50 [1]: 0.596 µM (active)

COc1ccc2nc(NN=C(C)c3ccccn3)cc(C)c2c1
IC50 [6]: 7.94 µM (active)

C[C@H]1CN([C@@H](C)CO)C(=O)c2cccc(NC(=O)c3nc4ccccc4s3)c2O[C@H]1CN(C)C(=O)Nc1ccc(C(F)(F)F)cc1
AC50 [15]: 3.86 µM (active)

C[C@@H]1CN([C@H](C)CO)C(=O)c2cccc(NC(=O)CCCCCC(=O)Nc3ccccc3N)c2O[C@@H]1CN(C)Cc1ccc(-c2ccccc2)cc1
AC50 [15]: 4.22 µM (active)

C[C@H](CO)N1C[C@H](C)[C@H](CN(C)C(=O)Nc2cccc3ccccc23)Oc2c(NC(=O)Nc3ccc(C(F)(F)F)cc3)cccc2C1=O
AC50 [15]: 6.42 µM (active)

C[C@H](CO)N1C[C@H](C)[C@H](CN(C)C(=O)Nc2ccc(F)cc2)Oc2c(NC(=O)Nc3cccc4ccccc34)cccc2C1=O
AC50 [15]: 1.79 µM (active)

COc1ccc(CN(C)C[C@@H]2OCCCC[C@@H](C)Oc3ccc(NC(=O)Nc4ccc(C(F)(F)F)cc4)cc3C(=O)N([C@H](C)CO)C[C@@H]2C)cc1
AC50 [15]: 2.48 µM (active)

C[C@@H]1CN([C@H](C)CO)C(=O)Cc2cc(NC(=O)Cc3cn(C)c4ccccc34)ccc2O[C@H]1CN(C)Cc1ccc(-c2ccccc2)cc1
AC50 [15]: 4.23 µM (active)

COc1cccc(/C=N/Nc2ccnc(O)n2)c1O
EC50 [16]: > 112 µM (not active) | EC50 [17]: 10.7 µM (active) | IC50 [6]: 10.6 µM (active) | AC50 [4]: 0.67 µM (active)

C[N+]1(CC(=O)NNc2c3ccccc3nc3ccccc23)CCOCC1
AC50 [8]: 2.83 µM (active)

S=C=Nc1cccc(C2(N3CCCCC3)CCCCC2)c1 [METAPHIT METHANESULFONATE]
AC50 [7]: 7.36 µM (active)
